The values that follow come from PMC7600243, “Live Imaging of Phosphate Levels in Arabidopsis Root Cells Expressing a FRET-Based Phosphate Sensor” (Plants, 2020).

This experiment addresses PiBP (Pi binding bacterial periplasmic Binding Protein) of the FLIPPi sensors FLIPPi-30m and FLIPPi-4µ. The following applies: pH 7.0; 20 mM Tris-HCl or MOPS; in planta, externally applied Pi buffer 0-200 mM; inhibitor dose response fit, variable slope.

The molecule `O=P(O)(O)O` [Pi, inorganic phosphate] showed a Kd of 35 mM.
